Assay results reported in a melting point compilation (Tetko et al.; mined from patent text by program, amines drawn as free bases though some values may be those of a salt).

For CCCn1c(=O)[nH]c2cnc(-c3ccccc3)nc21, the melting point was 263 to 264 °C. With COC(=O)c1cscc1NC(=O)NCCCCBr the melting point was 85 to 86 °C. COCCOc1ccc(-c2sc(N)c(C(=O)c3ccc(Cl)cc3)c2CN(C2CCCCC2)C2CCCCC2)cc1 gave a melting point of 162 to 164 °C. CC(C)C(O)(C#Cc1ccsc1)c1cncnc1 (configuration not stated) gave a melting point of 102 to 105 °C. Molecule O=C(O)c1cc(=O)[nH]c2ccc(I)cc12 has a melting point of 361 to 363 °C. With CN(C)C=C1C(=O)OC(=O)c2ccccc21 the melting point was 137 to 140 °C. CCCNC(=O)CC=Cc1ccc2c(c1)c(Cc1ccc(C(=O)OC)cc1OC)cn2CCC showed a melting point of 140 to 142 °C. With COC(=O)C(=O)c1ccc(OCCSc2ccccc2)cc1 the melting point was 49 to 51 °C. COC(=O)c1cnccc1NC(=O)C(C)CS (configuration not stated) showed a melting point of 54 to 56 °C. With CCCCc1ccc(C(=O)Nc2cc(CCCC)c(NC(=O)c3ccc(CCCC)cc3)c3c2C(=O)c2ccccc2C3=O)cc1 the melting point was 180 to 181 °C. Work on O=C(O)c1ccc(-c2nn(-c3ccccc3C(=O)O)c3ccc([N+](=O)[O-])cc23)cc1 yielded a melting point of 348 to 350 °C. Work on Cc1ccc(NC(=O)N2CCN(CCc3ccc(-c4cccc(N)n4)cc3)CC2)cc1C yielded a melting point of 122 to 125 °C. CCOC(=O)C(=CNc1nc(C)c(C)s1)C(=O)OCC gave a melting point of 82 to 83.5 °C. For CCCCCCCCCCCCN1CN=C(NC(=O)Nc2c(C(C)C)cccc2C(C)C)N1, the melting point was 128 to 140 °C. Molecule O=C1CC(c2cccc(-n3ccnn3)c2)=Nc2ccc(-c3cc(F)ccc3F)cc2N1 has a melting point of 231 °C. Work on Cc1cc(-c2cc(CN3CCN(C)CC3)c(=O)n(Cc3ccc(Cl)cc3)n2)ccc1F yielded a melting point of 133 to 134 °C. For COc1ccc(-c2nnn(-c3ccc(C(F)(F)F)cc3F)c2C)cc1, the melting point was 154 to 155 °C. Molecule Cc1nn(C)c(NCC(C)(C)C)c1N=O has a melting point of 83 to 84 °C. For CC(C)(C)OC(=O)NCC(=O)N1[C@@H](C(=O)OC(C)(C)C)C[C@H](C(=O)O)[C@H]1c1ccccc1 (racemic), the melting point was 105 °C. Work on CC(C)c1cc(C#N)cc(C(=O)Nc2ccn(C)n2)n1 yielded a melting point of 174 °C. Cc1ccc(S(=O)(=O)N2CCC[C@H]2C(=O)N[C@@H](Cc2ccc(NC(=S)NCCN3CCCCC3)cc2)C(=O)O)cc1 gave a melting point of 148 to 158 °C. Molecule COc1ccc(C=CC(=O)c2ccccc2O)cc1 has a melting point of 81 to 83 °C. In the case of C=CC1(N)CN=C(c2ccc(Cl)c(N(C)C)c2F)N=C1C(=O)OC (configuration not stated), the melting point is reported as 136 to 137 °C. With O=C(Nc1ccc2c(c1)CCN(C(=O)Nc1ccc(OCC(O)CO)cc1Cl)C2)Nc1ccccc1F (configuration not stated) the melting point was 164 to 167 °C. Molecule COc1ccc(NC(=O)Nc2cccc(C(F)(F)F)c2)c(O)n1 has a melting point of 223 to 224 °C. Work on Cc1noc(NS(=O)(=O)c2ccc(-c3ccccc3)cc2)c1C yielded a melting point of 154 to 155 °C. With CCC1C=C2NC(=O)CC[C@]2(C)[C@H]2CC[C@]3(C)[C@@H]([C@H](C)CCCC(C)C)CC[C@H]3[C@H]12 (some centres not stated) the melting point was 147 to 149 °C. N#CC1CN1C(=O)c1ccco1 (configuration not stated) gave a melting point of 73 to 76 °C. COc1ccc2c(c1)CC(N(C)CCCN1CCc3cc(OC)c(OC)cc3NC1=O)CC2 (configuration not stated) gave a melting point of 163 to 165 °C. In the case of N#Cc1cccc(CSc2nnc(-c3ccn4ncnc4c3)o2)c1, the melting point is reported as 196 to 197 °C. Work on Cc1nc2cccc3nc(SCCCCNS(=O)(=O)C(F)(F)F)c1n23 yielded a melting point of 129 to 131 °C. Work on CC(C)C(=O)O[C@H]1[C@H](C)OC(=O)[C@@H](NC(=O)OC(C)(C)C)COC(=O)[C@@H]1CC(=O)O yielded a melting point of 164 to 167 °C. Cc1ccc(C(=O)c2c(Cl)cccc2Cl)cc1 showed a melting point of 109 to 112 °C. Molecule COC(=O)C=CC(=O)OC(=C1C(=O)N(C(N)=O)c2cc(Cl)c(F)cc21)c1cccs1 has a melting point of 184 to 186 °C. CNC1(C)CN(c2cc3c(cc2F)c(=O)c2c(=O)[nH]sc2n3C2CC2)C1 showed a melting point of 286 to 290 °C. With Cc1oc(-c2ccco2)nc1/C=C/c1ccc(/C=C/C=C/C=O)cc1 the melting point was 179 to 180 °C. Molecule O=C(O)[C@H](Cc1ccccc1)N[C@@H](CCc1ccccc1)C(=O)OCc1ccccc1 has a melting point of 141 to 144 °C. Molecule CC(C)N(CCC(C#N)c1ccc(-c2ccccc2)cc1)C(C)C (configuration not stated) has a melting point of 54 to 56 °C. For COC(=O)c1cnco1, the melting point was 35 to 50 °C. COc1cc(Cc2nc(NCC(C)C)c3c(C)c(C#N)sc3n2)cc(OC)c1OC gave a melting point of 129 to 131 °C. O=C(CCCN1CCCCC1)c1ccc2sc3ccc(C(=O)CCCN4CCCCC4)cc3c2c1 showed a melting point of 93 to 95 °C. Work on [N-]=[N+]=NC1CCCC2(CCCC2)NC1=O (configuration not stated) yielded a melting point of 96 to 99 °C. O=S1(=O)NC(C2CCCCC2)Nc2ccc(-c3ccccc3F)cc21 (configuration not stated) showed a melting point of 249 to 250 °C. Molecule COc1cc2c(cc1O)CC(C)(C)N(C(=O)c1cc(OC)c(OC)c(OC)c1)C2C (configuration not stated) has a melting point of 198 to 200 °C. In the case of O=C(O)C1Cc2cc3c(-c4ccccc4F)noc3cc2O1 (configuration not stated), the melting point is reported as 194 to 196 °C. Work on O=C(CCOCc1ccccc1)Nc1ccc(C(=O)Nc2ccccc2[N+](=O)[O-])cc1 yielded a melting point of 140 °C. In the case of CC(C)C(C(=O)O)c1ccc(OC(F)F)cc1 (configuration not stated), the melting point is reported as 63 °C. In the case of OC1CCCCC1n1cnc2cc(Cl)c(Cl)cc21 (configuration not stated), the melting point is reported as 236 to 238 °C. In the case of C=CCOC(=O)c1ccc(CC(=O)OC(C)(C)C)cc1, the melting point is reported as 68 to 69 °C. Nc1ccc2nc3c(c(N)c2c1)C(=O)CCC3 showed a melting point of 310 °C. CC1(C)OCc2c1nc1ccccc1c2NCCCN1CCCC1 showed a melting point of 70 to 75 °C. Work on CC(=O)NC[C@@H]1C[C@H]1c1cccn2nc(C)cc12 (relative stereo) yielded a melting point of 100 to 101 °C. Work on CCCCc1c(Cl)cccc1NC(=O)C(C)(C)C yielded a melting point of 88 to 89 °C. Molecule CCOc1cc2c(Nc3ccc(Sc4nccn4C)c(Cl)c3)c(C#N)cnc2cc1N1CCC(N2CCCC2)CC1 has a melting point of 203 to 207 °C. Work on COc1cc2c(cc1OC)-c1c(C#N)sc(=O)n1CC2 yielded a melting point of 205 to 207 °C. CC(O)CCCCn1cnc2c1c(=O)n(C)c(=O)n2C (configuration not stated) showed a melting point of 93 to 94 °C. CN1CC[C@H](c2c(O)cc(O)c3c(=O)cc(-c4ccccc4Cl)oc23)[C@H](O)C1 showed a melting point of 182 °C. O=[N+]([O-])c1ccc(Cl)cc1NC1Cc2ccccc2C1 gave a melting point of 108 °C. For CCN(CC)C(=S)SC(C[N+](=O)[O-])c1ccccc1 (configuration not stated), the melting point was 81 to 82.5 °C. For NC(=O)c1cc2ccc(OCC(O)CCl)cc2o1 (configuration not stated), the melting point was 109 to 110 °C. Molecule COc1ccc(CCc2nc(C(N)=O)c[nH]2)cc1 has a melting point of 218 to 219 °C. Molecule COc1ccc(Cc2c(F)cccc2F)c(N(CC(N)=O)S(=O)(=O)c2ccc(OC)c(OC)c2)c1 has a melting point of 188 °C. With COc1ccccc1-c1cccn2nc(Nc3ccc4c(c3)CCN(CC(=O)N(C)C)CC4)nc12 the melting point was 102 to 105 °C. For Cc1ccc(Cn2c(=O)c3c(N4CCN(C)CC4)cc(Cl)cc3n(Cc3ccccc3)c2=O)cc1C, the melting point was 96 to 99 °C. In the case of Cc1ccc(CCN2C(=O)COc3ccc(C=C4SC(=S)NC4=O)cc32)cc1, the melting point is reported as 267 to 269 °C. With CC(C)n1nc(-c2ccc(=O)[nH]c2-c2ccccc2)ccc1=O the melting point was 107 to 109 °C. Work on CN(Cc1cc(C(F)(F)F)cc(C(F)(F)F)c1)C(=O)c1c(Cl)nc2ccccc2c1-c1ccccc1 yielded a melting point of 147 to 148 °C. Work on Nc1ccc2c(c1)ncn2-c1cccc(-c2cccnc2)c1 yielded a melting point of 172 to 175 °C. For CCOC(=O)/C=C/c1cc(C(F)(F)F)ccc1C(=O)NCC(F)(F)F, the melting point was 162 °C. CCCc1c(OCCCCCCc2cc(C)c(O)c(O)c2C)ccc(C(=O)O)c1O gave a melting point of 170 to 171 °C. CC(Cl)(Cl)C(NC(=O)c1cccc(Cl)c1)NC(=N[N+](=O)[O-])Nc1cccnc1 (configuration not stated) gave a melting point of 160 to 161 °C. With CCOCN(C(=O)N(COCc1ccccc1)c1nc(OCC(F)(F)F)cc(OCC(F)(F)F)n1)c1ccc(C(F)(F)F)cc1 the melting point was 62 to 65 °C. Molecule O=C(C=Cc1cccs1)Nc1nnn[nH]1 has a melting point of 287 °C. Cc1ccc2oc(-c3ccccc3[N+](=O)[O-])cc2c1 showed a melting point of 83 °C. Work on CSC(c1ccc(Cl)cc1)C(C(O)C(C)(C)C)n1cncn1 (configuration not stated) yielded a melting point of 58 to 60 °C. In the case of N#CC(C(=O)Nc1ccccc1)C(=O)c1nn(-c2ccccc2)c2c1CSc1ccc(NC(=O)CN)cc1-2 (configuration not stated), the melting point is reported as 218 to 221 °C. For COc1ccc(O[C@@H]2CCNC[C@H]2O)c(Br)c1 (relative stereo), the melting point was 132 to 135 °C. In the case of CC(C)(C)OC(=O)NCCCCCC(=O)O, the melting point is reported as 39 to 42 °C. O=C1CCC(N2C(=O)c3cccc(OCc4ccc(CN5CCC(c6ccccc6)CC5)cc4)c3C2=O)C(=O)N1 (configuration not stated) showed a melting point of 142 to 144 °C. In the case of CC(=O)NCc1ccc(C(C)Cl)cc1 (configuration not stated), the melting point is reported as 58 to 62 °C. With C=Cc1cn(-c2c(Cl)cc(C(F)(F)F)cc2Cl)cc1C#N the melting point was 55 to 60 °C. Molecule N#Cc1cnn2c1N(C(=O)CN1CCN(Cc3ccccc3C(F)(F)F)CC1)CC=C2c1cccc(C(F)(F)F)c1 has a melting point of 169 to 171 °C. With CCCC(c1cc(C(=O)Nc2ccccc2)ccc1OCc1ccc(Br)cc1)n1ccnc1 (configuration not stated) the melting point was 159 to 166 °C. For COc1cc(C(=O)c2c(N)sc3c2CCN(Cc2ccccc2)C3)ccc1OC(C)C, the melting point was 113 to 114 °C. For COc1ccc(-c2nccc3c(CC#N)cccc23)cc1, the melting point was 130 to 132 °C. For Cc1cc(O)ccc1Nc1nc(N)ncc1Oc1ccc(Cl)cc1, the melting point was 199 to 201 °C. For Nc1cc(OCC(O)CO)ccc1[N+](=O)[O-] (configuration not stated), the melting point was 139 °C. Work on COC(=O)C1=C(C)NC(C(C)=O)=C(C(=O)OC)C1c1ccccc1Cl (configuration not stated) yielded a melting point of 161 to 162 °C. With CCCc1nccn1-c1nc(Cl)nc2nc[nH]c12 the melting point was 224 to 225 °C. With CN1CCN(C2=Nc3ccccc3N(C)c3cscc32)CC1 the melting point was 83 to 85 °C. CCN1C(=O)C(=O)N(c2ccc(F)cc2)C1=S showed a melting point of 172 to 174 °C. CC(C)(C)C(=O)c1oc(N)nc1C(C)(C)C gave a melting point of 248 to 250 °C. COC1CN(C(=O)c2cc(-c3ccccc3)c(=O)n3c2-c2sccc2C3)C1 gave a melting point of 192 to 193 °C. Cc1nn(-c2c(Cl)cc(C(F)(F)F)cc2Cl)c(C)c1C=NC(C#N)=C(N)C#N gave a melting point of 237 to 240 °C. Cc1cc(-c2ccc(Cl)c(C)c2)nc(-c2cccc(-c3cccc(S(N)(=O)=O)c3)c2)n1 gave a melting point of 201 °C. O=C(O)Cc1cccc(OCc2ccc3ccccc3n2)c1 gave a melting point of 128 to 130 °C. With COc1ccc(-c2nc(-c3ccc(OCCO)cc3O)nc(-c3ccc(OCCO)cc3OCCO)n2)cc1 the melting point was 172 °C.
